{
  "source": "PubChem BioAssay AID1033",
  "about": "(Sanford-Burnham Center for Chemical Genomics, 2008)",
  "note": "Calls of active or inactive are those of the source. How the calls were made is not given here.",
  "data": [
    {"target": "Chaperone protein DnaK (Escherichia coli (strain K12)) (UniProt P0A6Y8)", "sequence (P0A6Y8 whole entry, looked up, the tested form may be a part)": "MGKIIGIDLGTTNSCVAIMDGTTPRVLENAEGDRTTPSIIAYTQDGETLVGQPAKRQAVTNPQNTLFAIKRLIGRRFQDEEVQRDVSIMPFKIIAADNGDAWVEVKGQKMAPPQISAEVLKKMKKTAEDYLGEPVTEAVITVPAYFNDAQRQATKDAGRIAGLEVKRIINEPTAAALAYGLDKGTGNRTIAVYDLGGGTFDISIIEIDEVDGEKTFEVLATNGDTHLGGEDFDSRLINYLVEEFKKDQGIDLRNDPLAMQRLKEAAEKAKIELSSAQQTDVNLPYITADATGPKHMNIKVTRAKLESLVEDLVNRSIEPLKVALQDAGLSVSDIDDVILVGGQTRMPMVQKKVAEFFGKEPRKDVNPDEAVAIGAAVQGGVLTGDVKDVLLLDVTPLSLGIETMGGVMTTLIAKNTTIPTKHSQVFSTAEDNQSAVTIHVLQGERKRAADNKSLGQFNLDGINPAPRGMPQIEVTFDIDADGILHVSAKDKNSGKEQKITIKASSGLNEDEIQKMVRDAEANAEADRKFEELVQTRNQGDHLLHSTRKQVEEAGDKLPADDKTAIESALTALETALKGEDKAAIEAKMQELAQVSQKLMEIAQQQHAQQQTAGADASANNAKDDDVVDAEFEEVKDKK", "assay": "binders of DnaK substrate-binding domain, biophysical, NMR, chaperone (AID 1033)", "conditions": "Purified DnaK SBD, NMR ligand binding", "values": [
      {"smiles": "CN(c1ccccc1C(=O)N1CCOCC1)S(C)(=O)=O", "Kd": "> 4 mM (inactive)"},
      {"smiles": "Cc1nc2ccc(NC(=O)N3CCSCC3)cc2s1", "Kd": "> 4 mM (inactive)"},
      {"smiles": "Cc1ccc(SCCN2C(=O)NC(C)(C)C2=O)cc1", "Kd": "> 4 mM (inactive)"},
      {"smiles": "CCC(CCC(C)[C@H]1CCC2C3CC=C4C[C@@H](O)CC[C@]4(C)C3CC[C@@]21C)C(C)C", "note": "(stereo partly drawn)", "Kd": "> 4 mM (inactive)"},
      {"smiles": "CS(=O)(=O)N1CCC(C(=O)NC2CCCC2)CC1", "Kd": "> 4 mM (inactive)"},
      {"smiles": "CNc1nc(N)c(C(=O)C(C)(C)C)s1", "Kd": "> 4 mM (inactive)"},
      {"smiles": "OCc1ccc2nonc2c1", "Kd": "> 4 mM (inactive)"},
      {"smiles": "COc1cc(C(=S)N2CCOCC2)ccc1O", "Kd": "> 4 mM (inactive)"},
      {"smiles": "NC(=O)Cc1nc2ccccc2[nH]1", "Kd": "> 4 mM (inactive)"},
      {"smiles": "CCNC(=S)N1CCC(C(N)=O)CC1", "Kd": "> 4 mM (inactive)"},
      {"smiles": "COc1cc(C(=S)N2CCC(C(N)=O)CC2)ccc1O", "Kd": "> 4 mM (inactive)"},
      {"smiles": "C/C=C(/C)C(=O)O[C@@H]1Cc2c(ccc3ccc(=O)oc23)OC1(C)C", "Kd": "> 4 mM (inactive)"},
      {"smiles": "COc1ccc(N2C(=N)C(C)(C)NC2=O)cc1", "Kd": "> 4 mM (inactive)"},
      {"smiles": "C=CCNC(=O)c1nn2cccnc2c1Cl", "Kd": "> 4 mM (inactive)"},
      {"smiles": "COC(=O)Cc1cccc(OC)c1", "Kd": "> 4 mM (inactive)"},
      {"smiles": "Cc1cccc(NC(=O)Nc2cc(C)on2)c1", "Kd": "> 4 mM (inactive)"},
      {"smiles": "Cc1cc(C(=O)N2CCC3(CC2)OCCO3)cs1", "Kd": "> 4 mM (inactive)"},
      {"smiles": "CC1=NN(C(N)=S)C(C)(C)C1", "Kd": "> 4 mM (inactive)"},
      {"smiles": "COC(=O)C(O)[C@@H]1C2(C)C(=O)[C@@H](CC3=C4CC(=O)O[C@@H](c5ccoc5)[C@]4(C)CCC32)[C@H](OC(C)=O)C1(C)C", "note": "(stereo partly drawn)", "Kd": "> 4 mM (inactive)"},
      {"smiles": "C/C=C(/C)C(=O)O[C@H]1CC[C@@]2(C)[C@@H]3CC[C@H]4[C@]5(O)C[C@H](O)[C@@]6(O)[C@@H](CN7C[C@@H](C)CC[C@H]7[C@@]6(C)O)[C@]5(O)C[C@@]42OC13O", "Kd": "> 4 mM (inactive)"},
      {"smiles": "COc1ccccc1-c1noc(-c2ccncc2)n1", "Kd": "> 4 mM (inactive)"},
      {"smiles": "NC(=O)CS(=O)(=O)c1ccc2ccccc2c1", "Kd": "> 4 mM (inactive)"},
      {"smiles": "CCC1(CC)C(=O)NC(=O)N=C1N", "Kd": "> 4 mM (inactive)"},
      {"smiles": "C[n+]1cccc(C(=O)[O-])c1", "Kd": "> 4 mM (inactive)"},
      {"smiles": "COc1ccc(C(=O)O)cc1OC", "Kd": "> 4 mM (inactive)"},
      {"smiles": "CCC(=O)OC1[C@@H]2CC3=C4CC(=O)O[C@@H](c5ccoc5)[C@]4(C)CCC3C(C)(C2=O)[C@@H](CC(=O)OC)C1(C)C", "note": "(stereo partly drawn)", "Kd": "> 4 mM (inactive)"},
      {"smiles": "Cc1ccccc1NC(=O)/C=C\\C(N)=O", "Kd": "> 4 mM (inactive)"},
      {"smiles": "Cc1ccc2cc(CO)ccc2n1", "Kd": "> 4 mM (inactive)"},
      {"smiles": "Cc1nc2nc(-c3ccco3)nn2c(C)c1Cl", "Kd": "> 4 mM (inactive)"},
      {"smiles": "CC(C)=CCCC1(C)C=Cc2c(O)c3c(c(CC=C(C)C)c2O1)OC12C(=CCCC1C(C)(C)O[C@@]2(C/C=C(\\C)C(=O)O)C(=O)O)C3=O", "note": "(stereo partly drawn)", "Kd": "> 4 mM (inactive)"},
      {"smiles": "CC(C(N)=O)N1C(=O)c2ccccc2C1=O", "note": "(stereo not drawn)", "Kd": "> 4 mM (inactive)"},
      {"smiles": "NC1=NC(=O)C(Cc2ccccc2)S1", "note": "(stereo not drawn)", "Kd": "> 4 mM (inactive)"},
      {"smiles": "NCc1ccc(-c2cccs2)s1", "Kd": "> 4 mM (inactive)"},
      {"smiles": "O=C1CC(=O)N(c2ccccc2)C(=O)N1", "Kd": "> 4 mM (inactive)"},
      {"smiles": "CC(C)=CC(=O)Nc1ccccc1C(N)=O", "Kd": "> 4 mM (inactive)"},
      {"smiles": "COc1ccc(C)cc1S(N)(=O)=O", "Kd": "> 4 mM (inactive)"},
      {"smiles": "O=C(O)c1cccc(O)c1O", "Kd": "> 4 mM (inactive)"},
      {"smiles": "O=C(NS(=O)(=O)c1ccccc1)c1ccccc1F", "Kd": "> 4 mM (inactive)"},
      {"smiles": "NS(=O)(=O)c1ccc(NC(=S)NC2CC2)cc1", "Kd": "> 4 mM (inactive)"},
      {"smiles": "CCN1CCC(NC2CCCCNC2=O)CC1", "note": "(stereo not drawn)", "Kd": "> 4 mM (inactive)"},
      {"smiles": "COc1ccc(-c2cc(=O)c3c(O)cc(O[C@H]4O[C@H](CO[C@@H]5O[C@@H](C)[C@H](O)[C@@H](O)[C@H]5O)[C@@H](O)[C@H](O)[C@H]4O)cc3o2)cc1", "Kd": "> 4 mM (inactive)"},
      {"smiles": "OC[C@H]1O[C@@](CO)(O[C@@H]2O[C@H](CO)[C@@H](O)[C@H](O)[C@H]2O)[C@@H](O[C@@H]2O[C@H](CO)[C@@H](O)[C@H](O)[C@H]2O)[C@@H]1O", "Kd": "> 4 mM (inactive)"},
      {"smiles": "Fc1ccc(Br)cc1/C=N/n1cnnc1", "Kd": "> 4 mM (inactive)"},
      {"smiles": "O=c1c2c(nc3nc(COc4ccccc4)[nH]n13)CCC2", "Kd": "> 4 mM (inactive)"},
      {"smiles": "O=C(OCc1c(F)cccc1Cl)c1cnccn1", "Kd": "> 4 mM (inactive)"},
      {"smiles": "O=C(NCc1cccc(Cl)c1)c1ccco1", "Kd": "> 4 mM (inactive)"},
      {"smiles": "O=C(Nc1ccncc1)c1c(F)cccc1F", "Kd": "> 4 mM (inactive)"},
      {"smiles": "COc1cc([C@@H]2c3cc4c(cc3C(OC3O[C@@H]5COC(C)O[C@H]5[C@H](O)[C@H]3O)C3COC(=O)[C@@H]32)OCO4)cc(OC)c1O", "note": "(stereo partly drawn)", "Kd": "> 4 mM (inactive)"},
      {"smiles": "O=C(O)c1ccc(-c2cnco2)cc1", "Kd": "> 4 mM (inactive)"},
      {"smiles": "OC[C@@H]1CCCN2CCCC[C@H]12", "Kd": "> 4 mM (inactive)"},
      {"smiles": "S=c1[nH]nc(-c2cccnc2)n1C1CCCCC1", "Kd": "> 4 mM (inactive)"},
      {"smiles": "Cc1occc1C(=O)NCc1ccncc1", "Kd": "> 4 mM (inactive)"},
      {"smiles": "O=c1/c(=C/c2ccccc2F)sc2ncnn12", "Kd": "> 4 mM (inactive)"},
      {"smiles": "S=C(Nc1ccccc1)Nc1nncs1", "Kd": "> 4 mM (inactive)"},
      {"smiles": "O=C1NCCCC1C(=O)N1CCCCC1", "note": "(stereo not drawn)", "Kd": "> 4 mM (inactive)"},
      {"smiles": "COc1ccc(-c2nc(C)sc2CC(=O)O)cc1", "Kd": "> 4 mM (inactive)"},
      {"smiles": "O=C(Cc1c(F)cccc1Cl)Nc1ccon1", "Kd": "> 4 mM (inactive)"},
      {"smiles": "COc1ccc2c(CC(=O)O)coc2c1", "Kd": "> 4 mM (inactive)"},
      {"smiles": "CC(=O)OC1CCC2(C)C3CC(=O)C4(C)C(CC5OC6(CCC(C)CO6)[C@@H](C)C54)C3CC[C@H]2C1", "note": "(stereo partly drawn)", "Kd": "> 4 mM (inactive)"},
      {"smiles": "CC(=O)CNc1cc(CNC(C)=O)c(C)cc1C", "Kd": "> 4 mM (inactive)"},
      {"smiles": "Cc1c(C(=O)Nc2ccccn2)oc2ccccc12", "Kd": "> 4 mM (inactive)"},
      {"smiles": "C[C@]12CCC3C(CC[C@H]4C[C@@H](O)CC[C@]34C)C1CCC2=O", "note": "(stereo partly drawn)", "Kd": "> 4 mM (inactive)"},
      {"smiles": "Cc1nc2ccccc2c(=O)n1NC(=O)Nc1ccccc1", "Kd": "> 4 mM (inactive)"},
      {"smiles": "O=C(NCN1CCOCC1)c1cnccn1", "Kd": "> 4 mM (inactive)"},
      {"smiles": "CC(=O)O[C@H]1C[C@@H](OC(C)=O)C(C)(C)C2C[C@@H](OC(C)=O)[C@]3(C)C([C@H](OC(C)=O)C[C@@]4(C)[C@H](c5ccoc5)OC(=O)[C@H]5O[C@]543)[C@]21C", "note": "(stereo partly drawn)", "Kd": "> 4 mM (inactive)"},
      {"smiles": "O=C(NN1C(=O)c2ccccc2C1=O)c1cccs1", "Kd": "> 4 mM (inactive)"},
      {"smiles": "CC1(C)C(=O)[C@@H]2C[C@@]3(O)C4=CC(=O)O[C@@H](c5ccoc5)[C@]4(C)CCC3C(C)(C2=O)[C@H]1CC(=O)O", "note": "(stereo partly drawn)", "Kd": "> 4 mM (inactive)"},
      {"smiles": "Oc1cc2c(cc1O)C1c3ccc(O)c(O)c3OCC1(O)C2", "note": "(stereo not drawn)", "Kd": "> 4 mM (inactive)"},
      {"smiles": "O=C(/C=C/c1ccco1)NC1=NCCS1", "Kd": "> 4 mM (inactive)"},
      {"smiles": "CCNC(CC(=O)Nc1cccc([N+](=O)[O-])c1)C(=O)O", "note": "(stereo not drawn)", "Kd": "> 4 mM (inactive)"},
      {"smiles": "Nc1cc2ccccc2cn1", "Kd": "> 4 mM (inactive)"},
      {"smiles": "O=C1CCc2ccccc2CN1", "Kd": "> 4 mM (inactive)"},
      {"smiles": "CC(NC(=O)c1cccnc1)c1ccc2c(c1)OCO2", "note": "(stereo not drawn)", "Kd": "> 4 mM (inactive)"},
      {"smiles": "Nc1cc(=O)[nH]c(=O)n1Cc1ccco1", "Kd": "> 4 mM (inactive)"},
      {"smiles": "O=c1sc2ccccc2n1CN1CCOCC1", "Kd": "> 4 mM (inactive)"},
      {"smiles": "O=[n+]1c2c(n([O-])c3ccccc31)CCCC2", "Kd": "> 4 mM (inactive)"},
      {"smiles": "OCCNC(=S)Nc1ccccc1", "Kd": "> 4 mM (inactive)"},
      {"smiles": "NC(=O)c1cn(-c2ccccc2)nc1-c1cccnc1", "Kd": "> 4 mM (inactive)"}
    ]}
  ]
}
